Patent publication US9987276B2 (Celgene CAR LLC, priority 2008, dated 2018)
Like-named read-outs stand apart in the source and are kept apart here.

How the values were obtained:
EGFR-T790M/L858R = EGFR-T790M/L858R (Homo sapiens (Human), UniProt P00533, L858R/T790M); test: Omnia assay for potency assessment against EGFR (T790M/L858R); conditions: read-out: EGFR (T790M/L858R); EGFR mutant T790M/L858R
BTK [1] = target: T1, BTK (Homo sapiens (Human), UniProt Q06187); test: Omnia assay for potency assessment against BTK; format: biochemical; conditions: for IC50: [BTK]=5 nM, Omnia assay, read-out: BTK Inhibition (IC50)
T1 sequence (Q06187 whole entry): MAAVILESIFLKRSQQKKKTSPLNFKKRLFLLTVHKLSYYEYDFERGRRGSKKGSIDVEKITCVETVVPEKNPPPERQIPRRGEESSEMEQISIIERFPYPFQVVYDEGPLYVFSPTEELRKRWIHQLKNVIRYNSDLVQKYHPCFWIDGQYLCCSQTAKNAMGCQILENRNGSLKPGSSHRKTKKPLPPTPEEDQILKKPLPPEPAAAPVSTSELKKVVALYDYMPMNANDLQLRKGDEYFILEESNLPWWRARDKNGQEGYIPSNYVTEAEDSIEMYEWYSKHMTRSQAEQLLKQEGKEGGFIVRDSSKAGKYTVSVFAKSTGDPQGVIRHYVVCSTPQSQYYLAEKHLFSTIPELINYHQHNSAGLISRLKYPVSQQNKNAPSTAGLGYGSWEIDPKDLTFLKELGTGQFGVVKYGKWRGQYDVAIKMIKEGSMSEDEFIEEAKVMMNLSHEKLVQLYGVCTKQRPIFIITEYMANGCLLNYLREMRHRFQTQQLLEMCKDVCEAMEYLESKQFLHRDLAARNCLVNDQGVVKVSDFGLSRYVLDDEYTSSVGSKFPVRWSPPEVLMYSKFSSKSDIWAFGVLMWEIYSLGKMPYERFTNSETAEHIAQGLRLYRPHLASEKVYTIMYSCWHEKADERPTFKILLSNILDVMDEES
Method: The modified BTK-optimized reagent conditions for the above protocol are:
[BTK]=5 nM, [ATP]=[…], [Y5-Sox]=[…] (ATP KMapp˜[…]).

EGFR T790M = EGFR T790M (Homo sapiens (Human), UniProt P00533, T790M); test: EGFR mutant T790M inhibition assay; format: biochemical
EGFR T790M, sequence (P00533 25-1210 T790M): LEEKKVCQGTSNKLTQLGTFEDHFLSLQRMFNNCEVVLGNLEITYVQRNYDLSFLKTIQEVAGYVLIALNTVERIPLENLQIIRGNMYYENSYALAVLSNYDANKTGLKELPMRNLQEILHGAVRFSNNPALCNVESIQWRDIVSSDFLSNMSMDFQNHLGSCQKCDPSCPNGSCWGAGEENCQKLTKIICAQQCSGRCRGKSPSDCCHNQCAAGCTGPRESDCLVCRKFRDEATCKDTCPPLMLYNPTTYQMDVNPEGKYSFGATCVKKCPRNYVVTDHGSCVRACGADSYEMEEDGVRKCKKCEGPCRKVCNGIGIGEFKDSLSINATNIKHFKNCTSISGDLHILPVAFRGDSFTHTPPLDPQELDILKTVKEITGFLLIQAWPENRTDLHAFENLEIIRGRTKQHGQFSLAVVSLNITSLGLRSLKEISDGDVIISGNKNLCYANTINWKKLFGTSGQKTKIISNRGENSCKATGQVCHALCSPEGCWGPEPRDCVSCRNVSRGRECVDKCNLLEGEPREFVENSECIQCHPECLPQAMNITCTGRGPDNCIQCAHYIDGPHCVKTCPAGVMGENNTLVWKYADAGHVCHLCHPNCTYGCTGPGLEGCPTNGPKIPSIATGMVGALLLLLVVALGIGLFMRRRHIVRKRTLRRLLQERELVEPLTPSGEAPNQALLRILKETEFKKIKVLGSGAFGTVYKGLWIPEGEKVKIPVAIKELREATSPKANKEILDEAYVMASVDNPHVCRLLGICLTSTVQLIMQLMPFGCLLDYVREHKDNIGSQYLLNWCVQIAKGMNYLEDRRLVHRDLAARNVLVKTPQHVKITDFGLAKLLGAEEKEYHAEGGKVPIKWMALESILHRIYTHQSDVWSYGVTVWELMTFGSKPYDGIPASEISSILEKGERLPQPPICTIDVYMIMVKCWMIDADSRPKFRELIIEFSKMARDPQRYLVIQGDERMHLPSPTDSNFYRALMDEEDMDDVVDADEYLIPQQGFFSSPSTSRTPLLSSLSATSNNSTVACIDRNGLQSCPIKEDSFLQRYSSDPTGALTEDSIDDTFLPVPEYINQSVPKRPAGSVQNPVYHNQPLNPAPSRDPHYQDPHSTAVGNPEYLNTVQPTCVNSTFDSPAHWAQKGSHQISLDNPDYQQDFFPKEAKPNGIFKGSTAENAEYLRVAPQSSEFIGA
Method: The Omnia Assay Protocol for potency assessment against EGFR is performed as described in Example 251 above except that the EGFR-WT- and EGFR T790M/L858R-modified optimized reagent conditions are: […]

ERBB1 = ERBB1 (Homo sapiens (Human), UniProt P00533); test: Z'-LYTE kinase inhibition, ErbB1; format: biochemical
Method: (§1) Compounds of the present invention were assayed as inhibitors of one or more of ErbB1, ErbB2, and/or ErbB4 in a manner substantially similar to the method described by Invitrogen Corp (Invitrogen Corporation, 1600 Faraday Avenue, Carlsbad, Calif., CA; http://www.invitrogen.com/downloads/Z-LYTE_Brochure_1205.pdf) using the Z'-LYTE™ biochemical assay procedure or similar biochemical assay. The Z'-LYTE™ biochemical assay employs a fluorescence-based, coupled-enzyme format and is based on the differential sensitivity of phosphorylated and non-phosphorylated peptides to proteolytic cleavage.

ERBB4 (HER4) = ERBB4 (HER4) (Homo sapiens (Human), UniProt Q15303); test: Z'-LYTE kinase inhibition, ErbB4; format: biochemical
Method: as §1

ITK = ITK (Homo sapiens (Human), UniProt Q08881); test: Omnia assay for potency assessment against active forms of ITK kinase; format: biochemical; conditions: [ITK]=10 nM, [ATP]=25, [Y6-Sox]=10 μM; read-out: ITK Inhibition
ITK, sequence (Q08881 whole entry): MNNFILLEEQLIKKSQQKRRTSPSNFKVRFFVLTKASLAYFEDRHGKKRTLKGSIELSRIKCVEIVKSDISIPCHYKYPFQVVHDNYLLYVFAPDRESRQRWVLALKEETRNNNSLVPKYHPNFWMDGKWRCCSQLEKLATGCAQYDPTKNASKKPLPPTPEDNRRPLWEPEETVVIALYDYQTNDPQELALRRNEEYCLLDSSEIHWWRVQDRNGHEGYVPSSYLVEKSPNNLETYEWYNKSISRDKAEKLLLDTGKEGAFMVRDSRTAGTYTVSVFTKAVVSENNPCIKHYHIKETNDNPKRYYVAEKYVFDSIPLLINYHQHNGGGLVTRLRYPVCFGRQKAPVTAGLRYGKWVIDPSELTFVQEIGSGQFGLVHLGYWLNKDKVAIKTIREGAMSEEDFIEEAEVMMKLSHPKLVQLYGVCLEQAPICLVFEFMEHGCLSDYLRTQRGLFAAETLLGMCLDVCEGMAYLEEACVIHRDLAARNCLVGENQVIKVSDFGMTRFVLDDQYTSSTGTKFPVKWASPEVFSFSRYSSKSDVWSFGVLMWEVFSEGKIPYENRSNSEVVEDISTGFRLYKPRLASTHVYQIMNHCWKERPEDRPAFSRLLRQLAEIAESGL
Method: [ITK]=10 nM, [ATP]=25 [Y6-Sox]=10 μM (ATP KMapp=33 μM).

EGFR-WT = EGFR-WT (Homo sapiens (Human), UniProt P00533); test: Omnia assay for potency assessment against EGFR (WT)
EGFR-WT, sequence (P00533 668-1210): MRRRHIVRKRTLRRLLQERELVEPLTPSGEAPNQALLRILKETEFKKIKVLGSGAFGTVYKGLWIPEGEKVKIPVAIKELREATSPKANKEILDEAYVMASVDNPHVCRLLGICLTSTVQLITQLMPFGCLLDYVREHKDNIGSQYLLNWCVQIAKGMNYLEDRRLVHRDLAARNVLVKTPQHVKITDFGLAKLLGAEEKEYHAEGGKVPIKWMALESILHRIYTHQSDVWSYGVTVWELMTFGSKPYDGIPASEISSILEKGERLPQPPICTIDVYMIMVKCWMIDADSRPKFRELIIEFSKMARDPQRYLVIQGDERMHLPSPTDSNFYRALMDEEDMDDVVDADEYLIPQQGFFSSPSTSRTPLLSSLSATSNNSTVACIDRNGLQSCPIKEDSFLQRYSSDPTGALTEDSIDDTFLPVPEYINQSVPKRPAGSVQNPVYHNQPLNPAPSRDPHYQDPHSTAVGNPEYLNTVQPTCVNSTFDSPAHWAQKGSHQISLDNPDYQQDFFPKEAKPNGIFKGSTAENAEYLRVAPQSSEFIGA

Human naïve B cells = test: Human primary B cell proliferation assay; format: cell-based
Method: Human naïve B cells were purified from 100 mL whole blood using a MACS purification kit designed to isolate CD19+, IgD+ cells by negative selection. Purified naïve B cells were resuspended in RPMI complete and stimulated with 5 μg/ml α-IgM for 72 hours. ^3H-Thymidine was included in the culture media for the final 16 h, cells were harvested and ^3H incorporation measured. Inhibition of B cell proliferation correlates with inhibition of BTK substrate phosphorylation after α-IgM stimulation.

BTK [2] = target: T1, BTK; test: BTK Ramos cellular assay (PLCγ2 phosphorylation); format: cell-based; conditions: Ramos cells, 1 hour compound, anti-IgM stimulation, p-PLCγ2; read-out: BTK Inhibition (IC50), BTK Ramos cellular inhibition
BTK [3] = target: T1, BTK; test: Mass spectrometry for BTK (intact protein); format: binding; conditions: 1 hr, 10× fold excess of compound
Method: Intact BTK was incubated for 1 hr at a 10× fold excess of I-7 to protein. Aliquots (2 μl) of the samples were diluted with 10 μl of 0.1% TFA prior to micro C4 ZipTipping directly onto the MALDI target using Sinapinic acid as the desorption matrix (10 mg/ml in 0.1% TFA:Acetonitrile 20:80).

[4] = system: TI-2 independent B cell activation; test: In vivo thymus-independent (TI-2) B cell activation; conditions: C57/B6 mice, 100 mg/kg daily day 0 through 5, TNP-Ficoll, serum day 6
BTK [5] = target: T1, BTK; test: BTK occupancy from in vitro samples by ELISA (Ramos cells); format: cell-based; conditions: ELISA with probe I-215
Method: (§2) In order to determine the amount of free BTK in cell or tissue lysates, an ELISA protocol was employed that utilizes a biotinylated probe compound that binds only to free, unoccupied BTK. The conjugated biotin is captured on a streptavidin-coated ELISA plate and detected with a mouse anti-BTK antibody (Becton Dickinson, Franklin Lakes, N.J., USA) and a secondary goat anti-mouse HRP antibody (Zymed, South San Francisco, Calif., USA).
All samples were prepared with equal concentrations of Biorad lysis buffer (Hercules, Calif., USA), 0.5% bovine serum albumin in PBS with 0.05% Tween-20 to give a final concentration of 1 μM I-215. Samples were incubated in a mixing plate for 1 hr at room temperature while shaking to allow probe compound I-215 to bind to free BTK. After incubation with I-215, samples were added to a washed, streptavidin-coated ELISA plate (Pierce, Rockford, Ill., USA) and incubated for 1 hr at room temperature while shaking. The plate was then washed with PBS containing 0.05% Tween-20 using an automatic plate washer. Anti-BTK antibody was prepared at 1:1000 dilution in 0.5% BSA in PBS (0.05% Tween-20) and added to the ELISA plate. The plate was incubated for 1 hr at room temperature while shaking. The plate was washed as described above and the secondary HRP antibody was prepared at 1:5000 dilution in 0.5% BSA in PBS (0.05% Tween-20). The plate was incubated and washed as described above. TMB was added to the plate, and OD650 was monitored until reaching 1 OD unit. The reaction was then stopped with addition of H2SO4. The plate was analyzed using Gen 5 software, and a 4 Parameter Logistic curve was employed to quantitate samples. Recombinant BTK (Invitrogen, Carlsbad, Calif., USA) was used for the standard curve.
A concentration designated as “A” is greater than 1 nM; a concentration designated as “B” is greater than 10 nM; and a concentration designated as “C” is greater than 50 nM.

PG-PS arthritis model = format: in vivo; conditions: female Lewis rats, oral gavage daily through day 22
Method: On day 0, female Lewis rats received an intraperitoneal (IP) bolus of peptidoglycan-polysaccharide (PG-PS) in an amount of 15 μg/g rat body weight. Baseline control rats received an IP bolus of PBS. The vehicle and treatment groups were dosed via oral gavage just prior to PG-PS administration. Treatment with vehicle and compound continued each day through day 22. Maximal lateral ankle width measurements of both rear limbs were collected with a caliper throughout the study. On day 23, study was terminated and the final change in ankle swelling was calculated and compared to vehicle controls.

BTK [6] = target: BTK (Canis lupus familiaris, UniProt A0A8I3P3Z9); test: Dog primary B cell covalent probe occupancy in vitro; format: cell-based; conditions: canine PBMCs, one hour at 37° C., probe I-215 ELISA
BTK (Canis lupus familiaris, UniProt A0A8I3P3Z9), sequence (A0A8I3P3Z9 1-664): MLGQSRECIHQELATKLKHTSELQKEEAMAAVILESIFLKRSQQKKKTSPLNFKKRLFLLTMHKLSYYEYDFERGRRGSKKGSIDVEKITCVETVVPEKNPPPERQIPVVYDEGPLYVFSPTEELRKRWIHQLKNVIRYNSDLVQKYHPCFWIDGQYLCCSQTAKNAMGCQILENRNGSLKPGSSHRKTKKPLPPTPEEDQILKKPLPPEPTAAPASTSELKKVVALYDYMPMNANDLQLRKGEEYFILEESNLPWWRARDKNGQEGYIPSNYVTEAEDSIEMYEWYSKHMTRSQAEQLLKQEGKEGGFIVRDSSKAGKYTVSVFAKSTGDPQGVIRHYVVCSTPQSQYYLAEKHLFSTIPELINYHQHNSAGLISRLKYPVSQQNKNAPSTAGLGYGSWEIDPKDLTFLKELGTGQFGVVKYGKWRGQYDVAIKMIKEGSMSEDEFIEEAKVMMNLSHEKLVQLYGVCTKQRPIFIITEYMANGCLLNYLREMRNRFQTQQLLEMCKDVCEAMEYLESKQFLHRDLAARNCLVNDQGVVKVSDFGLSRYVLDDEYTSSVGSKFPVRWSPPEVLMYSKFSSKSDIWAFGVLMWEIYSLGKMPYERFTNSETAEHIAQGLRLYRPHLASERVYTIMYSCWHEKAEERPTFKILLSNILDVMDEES
Method: as §2
(§3) All samples were prepared with equal concentrations of Biorad lysis buffer (Hercules, Calif., USA), 0.5% bovine serum albumin in PBS with 0.05% Tween-20 to give a final concentration of 1 μM I-215. Samples were incubated in a mixing plate for 1 hr at room temperature while shaking to allow probe compound I-215 to bind to free BTK. After incubation with I-215, samples were added to a washed, streptavidin-coated ELISA plate (Pierce, Rockford, Ill., USA) and incubated for 1 hr at room temperature while shaking. […] TMB was added to the plate, and OD650 was monitored until reaching 1 OD unit. […] The plate was analyzed using Gen 5 software, and a 4 Parameter Logistic curve was employed to quantitate samples. […]
Canine whole blood (30 mL) was diluted to 50 mL total with 1×PBS and layered on top of Histopaque-1077 (Sigma Aldrich). […] The supernatant was analyzed as described in Example 283 using I-215. […]

BTK [7] = target: T1, BTK; test: Human primary B cell covalent probe occupancy in vitro; format: cell-based; conditions: human primary B cells, 1 h at 37° C., probe I-215 ELISA
Method: as §2, §3
Human primary B cells were isolated as described in Example 256, then resuspended in RPMI media (10% serum). The compound to be analyzed was added at a 1:1000 dilution to media. […] The supernatant was analyzed as described in Example 283 using I-215.

EGFR-T790M/L858R, sequence (P00533 25-1210 T790M/L858R): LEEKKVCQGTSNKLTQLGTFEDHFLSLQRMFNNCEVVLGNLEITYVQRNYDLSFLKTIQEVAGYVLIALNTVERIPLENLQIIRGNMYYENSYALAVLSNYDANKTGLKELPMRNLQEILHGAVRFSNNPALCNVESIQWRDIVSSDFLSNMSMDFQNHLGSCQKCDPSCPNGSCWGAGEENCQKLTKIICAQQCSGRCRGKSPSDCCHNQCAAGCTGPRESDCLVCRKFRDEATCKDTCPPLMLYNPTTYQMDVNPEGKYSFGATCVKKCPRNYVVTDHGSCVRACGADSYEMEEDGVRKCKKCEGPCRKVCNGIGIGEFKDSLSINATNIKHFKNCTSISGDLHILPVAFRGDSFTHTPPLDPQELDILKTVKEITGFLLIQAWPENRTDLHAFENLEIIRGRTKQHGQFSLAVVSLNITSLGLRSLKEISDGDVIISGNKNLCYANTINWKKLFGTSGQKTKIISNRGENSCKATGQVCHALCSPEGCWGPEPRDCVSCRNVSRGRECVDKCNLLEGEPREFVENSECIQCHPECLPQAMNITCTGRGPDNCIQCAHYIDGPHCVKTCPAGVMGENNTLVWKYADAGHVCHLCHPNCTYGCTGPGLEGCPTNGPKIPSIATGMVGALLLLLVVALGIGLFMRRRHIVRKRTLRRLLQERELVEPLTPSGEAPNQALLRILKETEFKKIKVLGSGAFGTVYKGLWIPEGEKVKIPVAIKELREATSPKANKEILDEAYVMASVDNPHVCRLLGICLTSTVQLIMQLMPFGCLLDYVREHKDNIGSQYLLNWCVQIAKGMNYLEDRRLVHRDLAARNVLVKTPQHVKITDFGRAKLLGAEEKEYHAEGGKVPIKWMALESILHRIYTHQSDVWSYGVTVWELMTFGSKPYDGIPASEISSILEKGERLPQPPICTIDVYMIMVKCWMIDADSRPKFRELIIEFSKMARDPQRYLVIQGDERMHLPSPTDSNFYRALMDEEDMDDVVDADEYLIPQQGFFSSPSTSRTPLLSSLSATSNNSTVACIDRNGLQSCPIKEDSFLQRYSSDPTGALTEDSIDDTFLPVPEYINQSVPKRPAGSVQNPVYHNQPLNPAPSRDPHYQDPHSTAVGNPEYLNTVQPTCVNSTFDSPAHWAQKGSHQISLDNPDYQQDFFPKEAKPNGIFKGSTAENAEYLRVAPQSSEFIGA

Row | Compound | IC50 (EGFR-T790M/L858R) [nM] | IC50 (BTK [1]) [nM] | IC50 (EGFR T790M) [nM] | IC50 (ERBB1) [nM] | IC50 (ERBB4 (HER4)) [nM] | IC50 (ITK) [nM] | IC50 (EGFR-WT) [nM] | activity in the naïve B cell proliferation assay (Human naïve B cells) | biochemical activity against BTK (BTK [1]) | IC50 (BTK [2]) [nM] | covalent modification of BTK (mass spectrometry) (BTK [3]) | % Inhibition IgG3 (1:100) [4] [%] | % Inhibition IgM (1:1600) [4] [%] | >50% occupancy (concentration at which >50% of BTK is occupied) (BTK [5]) | >90% occupancy (concentration at which >90% of BTK is occupied) (BTK [5]) | % inhibition ankle swelling (PG-PS arthritis model) [%] | concentration at which at least 50% of BTK is occupied (BTK [6]) | concentration at which at least 50% of BTK is occupied (BTK [7]) | IC50 (EGFR-WT; read-out: EGFR (wild type inhibition), EGFR wild type) [nM]
1 | C=CC(=O)Nc1ccc(C)c(Nc2nccc(-c3cccnc3)n2)c1 [Compound I-56, N-(4-methyl-3-(4-(pyridin-3-yl)pyrimidin-2-ylamino)phenyl) acrylamide] | < 10 | 100 to 1000 | 10 to 100 | 2230 | 2170 | 100 to 1000 | 10 to 100 | – | – | – | – | – | – | – | – | – | – | – | –
2 | CCC(=O)Nc1cccc(Nc2nc(Nc3ccccc3)ncc2C)c1 [I^R-7, N-(3-(5-methyl-2-(phenylamino)pyrimidin-4-ylamino)phenyl) propionamide] | 1000 to 10000 | 100 to 1000 | – | – | – | – | 1000 to 10000 | not active | biochemically inactive | – | – | – | – | – | – | – | – | – | –
3 | C=CC(=O)Nc1cccc(Nc2nc(Nc3ccc(OCCOC)c(F)c3)ncc2F)c1 [Compound I-96, N-(3-(2-(3-fluoro-4-(2-methoxyethoxy)phenylamino)-5-fluoropyrimidin-4-ylamino)phenyl)acrylamide] | < 10 | < 10 | < 10 | – | – | 10 to 100 | 10 to 100 | – | – | < 10 | completely modify | 37.2 | 43 | A (greater than 1 nM) | B (greater than 10 nM) | 82.8 | greater than 10 nM | greater than 10 nM | –
4 | C=CC(=O)Nc1cccc(Nc2nc(Nc3ccc(OCCOC)cc3)ncc2F)c1 [Compound I-182, N-(3-(5-fluoro-2-(4-(2-methoxyethoxy)phenylamino)pyrimidin-4-ylamino)phenyl)acrylamide] | – | – | – | – | – | 10 to 100 | – | – | – | – | completely modify | 40 | 25 | A (greater than 1 nM) | C (greater than 50 nM) | – | – | greater than 10 nM | < 10
